Laboratory results taken from patent publication US20150196033A1, “PESTICIDAL COMPOSITIONS AND PROCESSES RELATED THERETO” (priority 2012, published 2015).
Where two headings read alike, the source gives them in different places.

Tests used:
Format in all cases: in vivo
[1] = tested on: Beet Armyworm (BAW) (Spodoptera exigua); assay: Bioassay on Beet Armyworm (BAW), 128-well diet tray assay; conditions: for mortality at 50 µg/cm2: read-out: Rating BAW (% Control (or Mortality))
Description: (§1) Certain molecules disclosed in this document were tested against BAW and CEW using procedures described in the following examples. In the reporting of the results, the “BAW & CEW Rating Table” was used (See Table Section).
Bioassays on BAW (Spodoptera exigua)
(§2) Trays were covered with a clear self-adhesive cover and held at 25° C., 14:10 light-dark for five to seven days. Percent mortality was recorded for the larvae in each well; activity in the eight wells was then averaged. The results are indicated in the table entitled “Table ABC: Biological Results” (See Table Section).

[2] = tested on: Corn Earworm (CEW) (Helicoverpa zea); assay: Bioassay on Corn Earworm (CEW), 128-well diet tray assay; conditions: for mortality at 50 µg/cm2 / mortality at 0.5 µg/cm2: Helicoverpa zea, 168 h; for mortality at 50 µg/cm2: read-out: Rating CEW (% Control (or Mortality)); for mortality at 0.5 µg/cm2: 0.5 μg/cm2 on artificial diet, read-out: Rating CEW (% Control (or Mortality)), *Tested at 0.5 μg/cm2
Description: as §1
Bioassays on CEW (Helicoverpa zea)
as §2

[3] = tested on: Green Peach Aphid (GPA) (Myzus persicae); assay: Bioassay on Green Peach Aphid (GPA), foliar spray on cabbage seedlings; conditions: 200 ppm foliar spray on cabbage seedlings, graded after three days, Abbott corrected % control; for mortality at 200 ppm: Myzus persicae, 72 h, read-out: Rating GPA (% Control (or Mortality))
Description: Certain molecules disclosed in this document were tested against GPA using procedures described in the following example. In the reporting of the results, the “GPA Rating Table” was used (See Table Section).
Cabbage seedlings grown in 3-inch pots, with 2-3 small (3-5 cm) true leaves, were used as test substrate. The seedlings were infested with 20-50 GPA (wingless adult and nymph stages) one day prior to chemical application. Four pots with individual seedlings were used for each treatment. Test compounds (2 mg) were dissolved in 2 mL of acetone/MeOH (1:1) solvent, forming stock solutions of 1000 ppm test compound. The stock solutions were diluted 5× with 0.025% Tween 20 in H2O to obtain the solution at 200 ppm test compound. A hand-held aspirator-type sprayer was used for spraying a solution to both sides of […] leaves until runoff. Reference plants (solvent check) were sprayed with the diluent only containing 20% by volume of acetone/MeOH (1:1) solvent. Treated plants were held in a holding room for three days at approximately 25° C. and ambient relative humidity (RH) prior to grading. Evaluation was conducted by counting the number of live aphids per plant under a microscope. Percent Control was measured by using Abbott's correction formula (W.S. Abbott, “A Method of Computing the Effectiveness of an Insecticide” J. Econ. Entomol. 18 (1925), pp. 265-267) as follows.
Corrected % Control=100*(X−Y)/X • where • X=No. of live aphids on solvent check plants and • Y=No. of live aphids on treated plants

[4] = Spodoptera exigua, 168 h, 50 μg/cm2 on artificial diet, second instar larvae, five to seven days
[5] = 50 μg/cm2 on artificial diet, second instar larvae, five to seven days
[6] = second instar larvae, five to seven days

| Compound | mortality at 50 µg/cm2 [1, 4] [%] | mortality at 50 µg/cm2 [2, 5] [%] | mortality at 200 ppm [3] [%] | further results |
| --- | --- | --- | --- | --- |
| COc1ccc(N/C(O)=C/C(=O)Nc2ccc(-c3ncn(-c4ccc(OC(F)(F)F)cc4)n3)cc2)c(C)c1 [Molecule A33, (Z)-3-hydroxy-3-(4-methoxy-2-methylphenylamino)-N-(4-(1-(4-(trifluoromethoxy)phenyl)-1H-1,2,4-triazol-3-yl)phenyl)acrylamide] | 50 to 100 | 50 to 100 | 0 to 80 | – |
| (E)-((N′-(4-Methoxy-2,6-dimethylphenyl)-N-((4-(1-(4-(trifluoromethyl)phenyl)-1H-1,2,4-triazol-3-yl)phenyl)carbamoyl) carbamimidoyl)thio)methyl 2-(((benzyloxy)carbonyl)amino)acetate [Molecule A9] | – | – | – | Rating BAW (% Control (or Mortality)) [1, 5]: A (50-100); Rating CEW (% Control (or Mortality)) [2, 5]: A (50-100); Rating GPA (% Control (or Mortality)) [3]: B (More than 0-Less than 80) |
| Cc1ccccc1N/C(S)=C/C(=O)Nc1ccc(-c2ncn(-c3ccc(OC(F)(F)F)cc3)n2)cc1 [Molecule A22, 3-thioxo-3-(o-tolylamino)-N-(4-(1-(4-(trifluoromethoxy)phenyl)-1H-1,2,4-triazol-3-yl)phenyl)propanamide] | 50 to 100 | 50 to 100 | 0 | – |
| COc1ccc(N/C(=N/C(=O)Nc2ccc(-c3ncn(-c4ccc(C(F)(F)F)cc4)n3)cc2)SCOC(=O)C(C)C)c(C)c1 [Molecule A1, (E)-((N′-(4-methoxy-2-methylphenyl)-N-((4-(1-(4-(trifluoromethyl)phenyl)-1H-1,2,4-triazol-3-yl)phenyl)carbamoyl)carbamimidoyl)thio) methyl isobutyrate] | 50 to 100 | 50 to 100 | 0 | – |
| CC(=O)/C(C(=O)Nc1ccc(-c2ncn(-c3ccc(OC(F)(F)F)cc3)n2)cc1)=C(/S)Nc1ccccc1C(C)C [Molecule A20, (E)-3-hydroxy-2-((2-isopropylphenyl)carbamothioyl)-N-(4-(1-(4-(trifluoromethoxy)phenyl)-1H-1,2,4-triazol-3-yl)phenyl)but-2-enamide] | 50 to 100 | 50 to 100 | 0 | – |
| Cc1cccc(C)c1N/C(S)=N/C(=O)Nc1ccc(-c2ncn(-c3ccc(C(F)(F)F)cc3)n2)cc1 [Molecule A12] | 50 to 100 | 50 to 100 | 0 | – |
| Cc1cccc(C)c1N/C(S)=N/C(=O)Nc1ccc(-c2ncn(-c3ccc(OC(F)(F)F)cc3)n2)cc1 [Molecule A11] | 50 to 100 | 50 to 100 | 0 to 80 | – |
| CC(C)C(=O)OCS/C(=N\C(=O)Nc1ccc(-c2ncn(-c3ccc(OC(F)(F)C(F)(F)F)cc3)n2)cc1)Nc1ccccc1C(C)C [Molecule A6, (Z)-((N-(2-Isopropylphenyl)-N′-((4-(1-(4-(pentafluoroethoxy)phenyl)-1H-1,2,4-triazol-3-yl)phenyl)carbamoyl)carbamimidoyl)thio)methyl isobutyrate] | 50 to 100 | 50 to 100 | 0 | – |
| Cc1cccc(C)c1N/C(O)=C/C(=O)Nc1ccc(-c2ncn(-c3ccc(OC(F)(F)F)cc3)n2)cc1 [Molecule A32, (Z)-3-(2,6-dimethylphenylamino)-3-hydroxy-I-(4-(1-(4-(trifluoromethoxy)phenyl)-1H-1,2,4-triazol-3-yl)phenyl)acrylamide] | 50 to 100 | 50 to 100 | 0 | – |
| COc1ccc(N/C(=N/C(=O)Nc2ccc(-c3ncn(-c4ccc(OC(F)(F)F)cc4)n3)cc2)SCS[C@@H]2O[C@@H](C)[C@H](OC)[C@@H](OC)[C@H]2OC)c(C)c1 [Molecule A10, (Z)-(((2S,3R,4R,5S,6S)-3,4,5-Trimethoxy-6-methyltetrahydro-2H-pyran-2-yl)thio)methyl N-(4-methoxy-2-methylphenyl)-N′-((4-(1-(4-(trifluoromethoxy)phenyl)-1H-1,2,4-triazol-3-yl)phenyl)carbamoyl) carbamimidothioate] | 50 to 100 | 50 to 100 | – | – |
| CCc1ccccc1N/C(=N\C(=O)Nc1ccc(-c2ncn(-c3ccc(OC(F)(F)F)cc3)n2)cc1)SCOC(=O)C(C)C [Molecule A57] | 50 to 100 | 50 to 100 | – | – |
| O=C(/N=C1\SCC(=O)N1c1ccccc1C(F)(F)F)Nc1ccc(-c2ncn(-c3ccc(OC(F)(F)F)cc3)n2)cc1 [Molecule A128] | – | – | – | mortality at 0.5 µg/cm2 ([1]; Spodoptera exigua, 168 h, 0.5 μg/cm2 on artificial diet, second instar larvae, five to seven days, read-out: Rating BAW (% Control (or Mortality)), *Tested at 0.5 μg/cm2): 50 to 100%; mortality at 0.5 µg/cm2 [2, 6]: 50 to 100% |
| CC(C)c1cccc(N/C(S)=N/C(=O)Nc2ccc(-c3ncn(-c4ccc(OC(F)(F)F)cc4)n3)cc2)c1 [Molecule A118] | 0 | 0 | – | – |
| CC(C)c1ccc(F)cc1N/C(S)=N/C(=O)Nc1ccc(-c2ncn(-c3ccc(OC(F)(F)F)cc3)n2)cc1 [Molecule A82] | 50 to 100 | – | – | mortality at 0.5 µg/cm2 [2, 6]: 50 to 100% |
| CC(C)c1c(F)cccc1N/C(S)=N/C(=O)Nc1ccc(-c2ncn(-c3ccc(OC(F)(F)F)cc3)n2)cc1 [Molecule A107] | 50 to 100 | – | – | mortality at 0.5 µg/cm2 [2, 6]: 50 to 100% |
| Cc1cccc(C)c1-n1c(C)cs/c1=N\C(=O)Nc1ccc(-c2ncn(-c3ccc(OC(F)(F)F)cc3)n2)cc1 [Molecule A42] | 0 to 50 | 0 | – | – |
| Cc1cccc(C)c1N/C(S)=C/C(=O)Nc1ccc(-c2ncn(-c3ccc(OC(F)(F)F)cc3)n2)cc1 [Molecule A23, 3-((2,6-dimethylphenyl)amino)-3-thioxo-N-(4-(1-(4-(trifluoromethoxy)phenyl)-1H-1,2,4-triazol-3-yl)phenyl)propanamide] | 50 to 100 | 50 to 100 | – | – |
| CCc1cccc(C)c1N/C(S)=N/C(=O)Nc1ccc(-c2ncn(-c3ccc(OC(F)(F)F)cc3)n2)cc1 [Molecule A97] | 50 to 100 | – | – | mortality at 0.5 µg/cm2 [2, 6]: 50 to 100% |
| CC(C)c1ccccc1N/C(S)=C/C(=O)Nc1ccc(-c2ncn(-c3ccc(OC(F)(F)F)cc3)n2)cc1 [Molecule A21, 3-((2-isopropylphenyl)amino)-3-thioxo-N-(4-(1-(4-(trifluoromethoxy)phenyl)-1H-1,2,4-triazol-3-yl)phenyl)propanamide] | 50 to 100 | 50 to 100 | – | – |
| CC(C)c1ccccc1N/C(S)=N/C(=O)Nc1ccc(-c2ncn(-c3ccc(C(F)(F)C(F)(F)C(F)(F)F)cc3)n2)cc1 [Molecule A113] | – | – | – | mortality at 50 µg/cm2 ([1]; Spodoptera exigua, 168 h): 50 to 100%; mortality at 50 µg/cm2 [2]: 0% |
| CC(C)c1ccccc1N1C(=O)CS/C1=C(/C#N)C(=O)Nc1ccc(-c2ncn(-c3ccc(OC(F)(F)F)cc3)n2)cc1 [Molecule A31, (Z)-2-Cyano-2-(3-(2-isopropylphenyl)-4-oxothiazolidin-2-ylidene)-N-(4-(1-(4-(trifluoromethoxy)phenyl)-1H-1,2,4-triazol-3-yl)phenyl)acetamide] | 50 to 100 | 50 to 100 | – | – |
| Cc1cc(C)c(N2C(=O)CS/C2=N\C(=O)Nc2ccc(-c3ncn(-c4ccc(OC(F)(F)F)cc4)n3)cc2)c(C)c1 [Molecule A36] | 50 to 100 | 50 to 100 | – | – |
| N#C/C(C(=O)Nc1ccc(-c2ncn(-c3ccc(OC(F)(F)F)cc3)n2)cc1)=C(/S)Nc1c(F)cccc1F [Molecule A30, (Z)-2-Cyano-3-((2,6-difluorophenyl)amino)-3-mercapto-N-(4-(1-(4-(trifluoromethoxy)phenyl)-1H-1,2,4-triazol-3-yl)phenyl)acrylamide] | 0 | 0 | – | – |
| Cc1cc(C)cc(N2C(=O)CS/C2=N\C(=O)Nc2ccc(-c3nnc(-c4ccc(OC(F)(F)F)cc4)o3)cc2)c1 [Molecule A104] | 0 | – | – | mortality at 0.5 µg/cm2 [2, 6]: 50 to 100% |
| Cc1ccccc1NC(=O)NC(=O)Nc1ccc(-c2ncn(-c3ccc(OC(F)(F)F)cc3)n2)cc1 [Molecule A51] | 50 to 100 | 50 to 100 | – | – |
